# Tested on: subjects undergoing embryo transfer therapy
# Assay: Phase 2 clinical study: pregnancy and live birth after embryo transfer
# Format: in vivo, human
# Source text: A total of 247 female subjects were selected for treatment based on a variety of inclusion criteria. Of these, 244 subjects completed the study. The study was open to healthy female volunteers from 18 to 36 years of age that had previously undergone up to one IVF or ICSI cycle that resulting in a negative pregnancy test as assessed by hCG detection, despite the transfer of at least one embryo of good quality, which was defined as an embryo having from six to eight blastomeres of uniform size and shape on the day of embryo transfer, ooplasm having no granularity, absence of multinucleation, and a maximum fragmentation of 10%. Subjects included in the study had at least one functional ovary and were capable of communicating with the investigator and research staff and complying with the requirements of the study protocol. Data are presented in the form of mean (standard deviation).
# Subjects included in the study underwent an initial screening period beginning up to 12 weeks prior to the day of oocyte retrieval from the subject. During this 12-week period, subjects underwent physical and gynecological examination in preparation for oocyte retrieval. This analysis included a recordation of the subjects' vital signs, hematology and biochemistry analysis of blood samples withdrawn from the subjects, urinary analysis, and a comprehensive review of the subjects' medical histories.
# At the conclusion of the screening period, subjects underwent controlled ovarian hyperstimulation by administration of a GnRH antagonist so as to prevent a premature rise in serum LH concentration. Concurrent pre-treatment with an oral contraceptive prior to controlled ovarian hyperstimulation was allowed, but not required. Final follicular maturation was performed with a single administration of hCG to the subject. Luteal support was performed by intravaginal administration of micronized natural progesterone at a dose of 600 mg (3×200 mg dosage forms) daily, commencing within 6-24 hours of oocyte retrieval. Progesterone administration continued for at least 6 weeks following embryo transfer for subjects testing positive for pregnancy at 14 days following embryo transfer. Retrieved oocytes contained at least 1-4 mature oocytes (i.e., ova), which were subsequently used for IVF or ICSI for embryo generation.
# The embryo transfer procedure was conducted three days after the oocyte retrieval day (OPU+3 days). Subjects undergoing embryo transfer were monitored prior to initiating the procedure. This analysis included a recordation of vital signs, as well as a transvaginal ultrasound to assess uterine contraction rate and endometrial thickness. […] Eligible subjects subsequently underwent blood sample analysis to determine pre-treatment levels of serum E2 and P4.
# From one to two embryos of good quality were transferred to each subject. To reduce uterine contractions at the time of embryo transfer, soft or ultra-soft catheters were used and contact with the uterine fundus was avoided. Any difficulties that occurred during the embryo transfer procedure were recorded, including instances in which uterine sounding or cervical dilation were required, instances in which a harder catheter was required, or instances in which blood was found in any part of the catheter.
# Approximately 1 hour following embryo transfer, subjects underwent a final physical examination and were subsequently discharged from the clinical unit until the first follow-up visit, which occurred at about 14 days following oocyte retrieval (OPU+14 days). At this time, subjects underwent a physical examination as well as a blood sample analysis to assess pregnancy by detection of hCG. Subjects testing positive for pregnancy continued the study and were scheduled for follow-up examinations at about 6 weeks following embryo transfer and at about 10 weeks following oocyte retrieval (OPU+10 weeks). Subjects that returned for examination at about 6 weeks following embryo transfer underwent ultrasound analysis. […]
# [1] = All P4 quartiles, 1 embryo transferred, 100 mg dose
# [2] = All P4 quartiles, 1 embryo transferred, 300 mg dose
# [3] = All P4 quartiles, 1 embryo transferred, 900 mg dose
# [4] = All P4 quartiles, 1 embryo transferred, All doses
# [5] = All P4 quartiles, 2 embryos transferred, 100 mg dose
# [6] = All P4 quartiles, 2 embryos transferred, 300 mg dose
# [7] = All P4 quartiles, 2 embryos transferred, 900 mg dose
# [8] = All P4 quartiles, 2 embryos transferred, All doses
# [9] = Excluding upper P4 quartile, 1 embryo transferred, 100 mg dose
# [10] = Excluding upper P4 quartile, 1 embryo transferred, 300 mg dose
# [11] = Excluding upper P4 quartile, 1 embryo transferred, 900 mg dose
# [12] = Excluding upper P4 quartile, 1 embryo transferred, All doses
# [13] = Excluding upper P4 quartile, 2 embryos transferred, 100 mg dose
# [14] = Excluding upper P4 quartile, 2 embryos transferred, 300 mg dose
# [15] = Excluding upper P4 quartile, 2 embryos transferred, 900 mg dose
# [16] = Excluding upper P4 quartile, 2 embryos transferred, All doses
# [17] = excluding subjects from pre-treatment serum P4 concentration Q4, 100 mg dose
# [18] = excluding subjects from pre-treatment serum P4 concentration Q4, 300 mg dose
# [19] = excluding subjects from pre-treatment serum P4 concentration Q4, 900 mg dose
# [20] = excluding subjects from pre-treatment serum P4 concentration Q4, All doses
structure (smiles),measurement,setting,value
"CO/N=C1/C[C@@H](CO)N(C(=O)c2ccc(-c3ccccc3C)cc2)C1 [Compound (II), (3Z,5S)-5-(hydroxymethyl)-1-[(2′-methyl-1,1′-biphenyl-4-yl)carbonyl]pyrrolidin-3-one O-methyloxime]",Live birth rate at a gestational age of at least 24 weeks,[1],(33.33%)
same,"Live birth rate at a gestational age of at least 24 weeks, Frequency",[1],13/39
same,Live birth rate at a gestational age of at least 24 weeks,[2],(33.33%)
same,"Live birth rate at a gestational age of at least 24 weeks, Frequency",[2],12/36
same,Live birth rate at a gestational age of at least 24 weeks,[3],(40.00%)
same,"Live birth rate at a gestational age of at least 24 weeks, Frequency",[3],14/35
same,Live birth rate at a gestational age of at least 24 weeks,[4],(35.45%)
same,"Live birth rate at a gestational age of at least 24 weeks, Frequency",[4],39/110
same,Live birth rate at a gestational age of at least 24 weeks,[5],(52.17%)
same,"Live birth rate at a gestational age of at least 24 weeks, Frequency",[5],12/23
same,Live birth rate at a gestational age of at least 24 weeks,[6],(37.50%)
same,"Live birth rate at a gestational age of at least 24 weeks, Frequency",[6],9/24
same,Live birth rate at a gestational age of at least 24 weeks,[7],(50.00%)
same,"Live birth rate at a gestational age of at least 24 weeks, Frequency",[7],12/24
same,Live birth rate at a gestational age of at least 24 weeks,[8],(46.48%)
same,"Live birth rate at a gestational age of at least 24 weeks, Frequency",[8],33/71
same,Live birth rate at a gestational age of at least 24 weeks,[9],(32.35%)
same,"Live birth rate at a gestational age of at least 24 weeks, Frequency",[9],11/34
same,Live birth rate at a gestational age of at least 24 weeks,[10],(45.45%)
same,"Live birth rate at a gestational age of at least 24 weeks, Frequency",[10],10/22
same,Live birth rate at a gestational age of at least 24 weeks,[11],(44.83%)
same,"Live birth rate at a gestational age of at least 24 weeks, Frequency",[11],13/29
same,Live birth rate at a gestational age of at least 24 weeks,[12],(40.00%)
same,"Live birth rate at a gestational age of at least 24 weeks, Frequency",[12],34/85
same,Live birth rate at a gestational age of at least 24 weeks,[13],(50.00%)
same,"Live birth rate at a gestational age of at least 24 weeks, Frequency",[13],8/16
same,Live birth rate at a gestational age of at least 24 weeks,[14],(53.85%)
same,"Live birth rate at a gestational age of at least 24 weeks, Frequency",[14],7/13
same,Live birth rate at a gestational age of at least 24 weeks,[15],(60.00%)
same,"Live birth rate at a gestational age of at least 24 weeks, Frequency",[15],12/20
same,Live birth rate at a gestational age of at least 24 weeks,[16],(55.10%)
same,"Live birth rate at a gestational age of at least 24 weeks, Frequency",[16],27/49
same,Live birth rate at gestational age of at least 24 weeks,"all subjects, 100 mg dose",40.3%
same,Ongoing pregnancy rate at 6 weeks post embryo transfer,"all subjects, 100 mg dose",46.8%
same,Ongoing pregnancy rate at 10 weeks post oocyte retrieval,"all subjects, 100 mg dose",43.5%
same,Positive pregnancy test at 14 days post embryo transfer,"all subjects, 100 mg dose",56.5%
same,Live birth rate at gestational age of at least 24 weeks,"all subjects, 300 mg dose",35.0%
same,Ongoing pregnancy rate at 6 weeks post embryo transfer,"all subjects, 300 mg dose",35.0%
same,Ongoing pregnancy rate at 10 weeks post oocyte retrieval,"all subjects, 300 mg dose",35.0%
same,Positive pregnancy test at 14 days post embryo transfer,"all subjects, 300 mg dose",50.0%
same,Live birth rate at gestational age of at least 24 weeks,"all subjects, 900 mg dose",43.3%
same,Ongoing pregnancy rate at 6 weeks post embryo transfer,"all subjects, 900 mg dose",46.7%
same,Ongoing pregnancy rate at 10 weeks post oocyte retrieval,"all subjects, 900 mg dose",45.0%
same,Positive pregnancy test at 14 days post embryo transfer,"all subjects, 900 mg dose",53.3%
same,Live birth rate at gestational age of at least 24 weeks,"all subjects, All doses",39.6%
same,Ongoing pregnancy rate at 6 weeks post embryo transfer,"all subjects, All doses",42.9%
same,Ongoing pregnancy rate at 10 weeks post oocyte retrieval,"all subjects, All doses",41.2%
same,Absolute increase in live birth rate vs placebo,[17],7.4%
same,Live birth rate at gestational age of at least 24 weeks,[17],38.0%
same,"Live birth rate at gestational age of at least 24 weeks, frequency",[17],19/50;
same,Ongoing pregnancy rate at 6 weeks post embryo transfer,[17],44.0%
same,Ongoing pregnancy rate at 10 weeks post oocyte retrieval,[17],42.0%
same,Positive pregnancy test at 14 days post embryo transfer,[17],54.0%
same,Absolute increase in live birth rate vs placebo,[18],18.0%
same,Live birth rate at gestational age of at least 24 weeks,[18],48.6%
same,"Live birth rate at gestational age of at least 24 weeks, frequency",[18],17/35;
same,Ongoing pregnancy rate at 6 weeks post embryo transfer,[18],48.6%
same,Ongoing pregnancy rate at 10 weeks post oocyte retrieval,[18],48.6%
same,Positive pregnancy test at 14 days post embryo transfer,[18],62.9%
same,Absolute increase in live birth rate vs placebo,[19],20.4%
same,Live birth rate at gestational age of at least 24 weeks,[19],51.0%
same,"Live birth rate at gestational age of at least 24 weeks, frequency",[19],25/49;
same,Ongoing pregnancy rate at 6 weeks post embryo transfer,[19],53.1%
same,Ongoing pregnancy rate at 10 weeks post oocyte retrieval,[19],51.0%
same,Positive pregnancy test at 14 days post embryo transfer,[19],59.2%
same,Absolute increase in live birth rate vs placebo,[20],14.9%
same,Live birth rate at gestational age of at least 24 weeks,[20],45.5%
same,"Live birth rate at gestational age of at least 24 weeks, frequency",[20],61/134;
same,Ongoing pregnancy rate at 6 weeks post embryo transfer,[20],48.5%
same,Ongoing pregnancy rate at 10 weeks post oocyte retrieval,[20],47.0%
